Experimental data: patent publication US4963565A, “In vivo treatment of mycobacterial infections with 6-cyclo octylamino-5,8-quinoline quinone” (priority 1986, dated 1990)

What was measured:
Mycobacterium leprae = assay: Inhibitory activity against Mycobacterium leprae in the macrophage model (3H thymidine uptake); format: cell-based, M. leprae (in human monocyte derived macrophages)
Source text: The effect of CQQ on Mycobacterium leprae, the causative agent for leprosy, was studied using monocyte derived macrophages obtained from human volunteers.
Blood from a healthy volunteer was drawn and monocytes were removed and cultured to the macrophage stage. This required about 7 days. The macrophages were then exposed to M. leprae bacilli obtained from biopsy specimens of leprosy patients. One sample was exposed to CQQ, while other samples were exposed to DDS (diaminodiphenyl sulphone), the standard antileprosy drug, or rifampin, at various concentrations. Macrophages were exposed to radiolabelled tritium (^3 H) labeled thymidine, and its uptake was measured using a liquid scintillation counter. A control model of M. leprae exposed macrophages, which was not treated was used as well. The uptake of thymidine is a measure of antimycobacterial activity.

M. intracellulare = assay: In vitro activity against serovars of M. intracellulare, radiometric (Bactec) method; format: cell-based; settings: comparison with CQQ; no data shown
Experimental: A study of the effect of CQQ on different serovars of M. intracellulare in vitro was performed using the radiometric (Bactec) method. Maximum growth index (GI) of 999 was determined (for control models) in terms of the number of days necessary for the culture to reach this stage. GI is measured using the special instrument which reads the amount of ^14 C labelled CO2 liberated from the strains using the ^14 C labelled substrates.

| SMILES | Counts per minute (3H thymidine uptake) (Mycobacterium leprae; Sample I, 10 NG/ML) [COUNTS PER MINUTE] | Counts per minute (3H thymidine uptake) (Mycobacterium leprae; Sample II, DDS 10 NG/ML) [COUNTS PER MINUTE] | Counts per minute (3H thymidine uptake) (Mycobacterium leprae; Sample III, DDS 10 NG/ML) [COUNTS PER MINUTE] | Counts per minute (3H thymidine uptake) (Mycobacterium leprae; Sample I, 3 NG/ML) [COUNTS PER MINUTE] | Counts per minute (3H thymidine uptake) (Mycobacterium leprae; Sample II, 3 NG/ML) [COUNTS PER MINUTE] | Counts per minute (3H thymidine uptake) (Mycobacterium leprae; Sample III, 3 NG/ML) [COUNTS PER MINUTE] | Effectiveness on M. intracellulare strains (M. intracellulare) |
| --- | --- | --- | --- | --- | --- | --- | --- |
| Nc1ccc(S(=O)(=O)c2ccc(N)cc2)cc1 [DDS, diaminodiphenyl sulphone, reference compound] | 84 | 78 | 84 | – | – | – | – |
| CO[C@H]1/C=C/O[C@@]2(C)Oc3c(C)c(O)c4c(O)c(c(/C=N/N5CCN(C)CC5)c(O)c4c3C2=O)NC(=O)/C(C)=C\C=C\[C@H](C)[C@H](O)[C@@H](C)[C@@H](O)[C@@H](C)[C@H](OC(C)=O)[C@@H]1C [rifampin, reference compound] | – | – | – | 82 | 80 | 82 | only effective on a few strains |
